Laboratory results reported in PMC9026428, “New Peptide Based Fluconazole Conjugates with Expanded Molecular Targets” (Pharmaceutics, 2022).
Values after ≈ are worked out from the molar mass of the structure shown. Where two headings read alike, the source gives them in different places. Non-standard residues stand in square brackets, D forms with d. Residues, ends and D or L forms follow the SMILES beside them. *: point of attachment. X1 = O=C(CCCC(=O)*)OC(Cn1cncn1)(Cn1cncn1)c1ccc(F)cc1F; Nle = CCCC[C@H](N)C(=O)O

Key:
[1] = tested on: HUVEC cells (human umbilical venous endothelial primary cells); experiment: MTT cytotoxicity assay
Method: (§1) The assessment of antifungal potential of synthesized agents was carried out using four reference strains (C. albicans ATCC 10231, C. albicans SC5314, C. glabrata DSM […] and C. krusei DSM […]) and six clinical isolates of fluconazole-resistant C. albicans that were provided by the Hospital of Medical University of Gdansk, Poland. Moreover, four C. albicans isolates, assigned as B3, B4, Gu4 and Gu5, were used for investigation whether the synthesized fluconazole derivatives were effectively removed from the yeast cells by the drug efflux transporters, as in the case of fluconazole. These strains were kindly provided by Prof. Joachim Morschhäuser from University of Würzburg (Würzburg, Germany). Strains Gu4 and B3 were fluconazole-sensitive isolates obtained from early infection episodes, while Gu5 and B4 were the corresponding fluconazole-resistant isolates obtained from later episodes in the same patients treated with fluconazole. The lack of susceptibility of the Gu5 strain to fluconazole was a consequence of overexpression of CDR1/2 genes encoding ABC transporters, whereas the resistance of B4 strain was caused by overexpression of the MDR1 gene encoding a membrane transport protein of the major facilitator superfamily (MFS). All of these Candida spp. strains were maintained on YPD agar plates (1% (w/v) yeast extract, 2% (w/v) peptone, 2% (w/v) glucose, 2% (w/v) agar) at 30 °C for 16–24 h. For all of the assays aimed at assessing the antifungal potential of the synthesized agents, the yeasts were cultivated at 37 °C in RPMI 1640 medium (with L-glutamine, without sodium bicarbonate, Sigma-Aldrich, Darmstadt, Germany)) buffered to a pH of 7.0 with 0.165 M morpholinepropanesulfonic acid (MOPS) buffer (Sigma-Aldrich). In this study, we used the human foreskin fibroblast cell line Hs27 (ATCC CRL 1634TM) and the human endothelial cell line HUVEC (C2519A), purchased from Lonza Group AG, (Basel, Switzerland). The Hs27 cells were maintained in cell media consisting of Dulbecco’s modified Eagles medium (DMEM), (Corning, Arizona, USA) with 10% fetal bovine serum (FBS), (Corning, Port Elizabeth, South Africa), 1% penicillin/streptomycin (Sigma-Aldrich Inc., Darmstadt, Germany), and 1% L-glutamine (Corning, Arizona, USA). The human endothelial cell line was maintained in cell media consisting of Endothelial Cell Growth Medium-2 Single Quots Kit (Lonza, USA). Both cell lines were cultured in an incubator at 37 °C and 5% CO2.
(§2) Hs27 and HUVEC mammalian cell lines were cultured as mentioned above. Once cell lines were about 80% confluent, cells were counted by a hemacytometer (Hausser Scientific, Horsham, PA, USA) and plated in 96-well microtiter plates at concentrations of 4500 cells per well for Hs27 and 2000 cells per well for HUVEC. Cells were allowed to attach overnight. […] The final concentration of DMSO was ensured to be around 1% in all experiments. Cells were incubated with studied compounds for 72 h at 37 °C and 5% CO2. After incubation, 20 µL of MTT solution in PBS (4 mg/mL) was added to all wells and incubated further for 3 h at 37 °C. Formed formazan crystals were dissolved in 150 µL DMSO, and absorbance was measured using an Asys UVM340 multi-well plate reader at λ = 540 nm. Cytotoxicity was determined compared to drug-free control. All experiments were performed in biological triplicates.

[2] = MTT cytotoxicity assay; details: human
Method: as §1, §2

[3] = tested on: Candida spp. strains tested; experiment: Antifungal activity against the whole panel of strains tested; format: cell-based; details: panel of Table 2, 8–250 µM
Method: Antifungal activity of the tested compounds against yeast cells was determined in 96-well plates as described in the CLSI document M27-A3 [39], with minor modifications (CLSI, 2008). Suspensions of the microorganisms were prepared by taking one loop of pure culture into sterile water and adjusting optical density to 0.1 at 660 nm wavelength and further 50-fold dilution in RPMI 1640 medium, resulting in cell concentration of approximately 2 × 10^4 CFU/mL [21]. Then, 100 μL of cells were added to the wells of a 96-well microtiter plate that contained 16–500 μM tested compounds and 16–500 μM of FLC or 0.2–62 μM AmB. The plates were incubated for 24 h at 37 °C. Each test was performed in triplicate. […] The MIC90 was defined as the lowest concentration of drug showing no visible growth; MIC50 was defined as the concentration that yielded at least 50% growth inhibition when compared with the growth control well.

[4] = tested on: Candida albicans Gu5; experiment: microbe, parasite or virus in culture; details: C. albicans Gu5 (fluconazole-resistant, CDR1/2 overexpression), RPMI 1640/MOPS pH 7.0, 24 h, 37 °C, triplicate; for MIC50: at least 50% growth inhibition vs growth control; for MIC90: lowest concentration with no visible growth
Method: as §1
(§3) Antifungal activity of the tested compounds against yeast cells was determined in 96-well plates as described in the CLSI document M27-A3 [39], with minor modifications (CLSI, 2008). […] The plates were incubated for 24 h at 37 °C. Each test was performed in triplicate. The final concentration of DMSO was ensured to be around 1% in all experiments.
(§4) For determination of minimum fungicidal concentrations (MFC), small aliquots of suspensions (around 10 μL) from each well were transferred using the pipette to YPD agar plates without inhibitors and incubated for 24 h at 37 °C.

[5] = tested on: Candida albicans 574; experiment: microbe, parasite or virus in culture; details: C. albicans 574 (fluconazole-resistant clinical isolate), RPMI 1640/MOPS pH 7.0, 24 h, 37 °C, triplicate; for MIC50: at least 50% growth inhibition vs growth control; for MIC90: lowest concentration with no visible growth
Method: as §1, §3, §4

[6] = tested on: Candida albicans 247; experiment: microbe, parasite or virus in culture; details: 37 °C; for MIC50 / MIC90: C. albicans 247 (fluconazole-resistant clinical isolate), RPMI 1640/MOPS pH 7.0, 24 h, triplicate; for MIC50: at least 50% growth inhibition vs growth control; for MIC90: lowest concentration with no visible growth
Method: as §1, §3, §4

[7] = tested on: Candida albicans Gu4; experiment: microbe, parasite or virus in culture; details: 37 °C; for MIC50 / MIC90: C. albicans Gu4 (fluconazole-sensitive isolate), RPMI 1640/MOPS pH 7.0, 24 h, triplicate; for MIC50: at least 50% growth inhibition vs growth control; for MIC90: lowest concentration with no visible growth
Method: as §1, §3, §4

[8] = tested on: Candida albicans 604; experiment: microbe, parasite or virus in culture; details: 37 °C; for MIC50 / MIC90: C. albicans 604 (fluconazole-resistant clinical isolate), RPMI 1640/MOPS pH 7.0, 24 h, triplicate; for MIC50: at least 50% growth inhibition vs growth control; for MIC90: lowest concentration with no visible growth
Method: as §1, §3, §4

[9] = MTT cytotoxicity assay; details: human; remark: listed apart in the source
Method: as §1, §2

[10] = tested on: Hs27 cells (human foreskin fibroblast cell line); experiment: MTT cytotoxicity assay
Method: as §1, §2

[11] = HUVEC cells, MTT, 72 h, 37 °C, 100–1.5 μM, biological triplicates
[12] = Hs27 cells, MTT, 72 h, 37 °C, 100–1.5 μM, biological triplicates

Compound	In vitro cytotoxicity IC90 ± SEM [1, 11]	IC50 at 72 h [2]	antifungal activity against the strains tested, in words [3]	MIC50 [4]	MIC90 [4]	MIC50 [5]	MIC90 [5]	MIC50 [6]	MIC90 [6]	MIC50 [7]	MIC90 [7]	MIC50 [8]	MIC90 [8]	IC50 at 72 h [9]	In vitro cytotoxicity IC90 ± SEM [10, 12]	other results
CSCC[C@H](NC(=O)[C@H](C)NC(=O)[C@H](CCCNC(=N)N)NC(=O)[C@H](CCCCN)NC(=O)[C@H](Cc1c[nH]c2ccccc12)NC(=O)[C@H](CCC(N)=O)NC(=O)[C@H](Cc1ccccc1)NC(=O)[C@H](CS)NC(=O)CCCC(=O)OC(Cn1cncn1)(Cn1cncn1)c1ccc(F)cc1F)C(=O)N[C@@H](CCCNC(=N)N)C(=O)N[C@@H](CCCCN)C(=O)N[C@H](C(=O)N[C@@H](CCCNC(=N)N)C(N)=O)C(C)C [FLCpOH-HLopt2-NH2] (X1-CFQWKRAMRKVR-NH2)	>100 µM	> 100 µM	moderately or poorly active	>250 µM	>250 µM	250 µM (≈ 503 µg/mL)	>250 µM	>250 µM	>250 µM	>250 µM	>250 µM	>250 µM	>250 µM	> 100 µM	>100 µM	
CSCC[C@H](NC(=O)[C@H](CCCNC(=N)N)NC(=O)[C@H](Cc1c[nH]c2ccccc12)NC(=O)[C@H](CCC(N)=O)NC(=O)[C@H](Cc1c[nH]c2ccccc12)NC(=O)[C@H](CCCNC(=N)N)NC(=O)[C@H](CCCNC(=N)N)NC(=O)[C@H](CS)NC(=O)[C@H](CCCCN)NC(=O)[C@H](Cc1ccccc1)NC(=O)CCCC(=O)OC(Cn1cncn1)(Cn1cncn1)c1ccc(F)cc1F)C(N)=O [FLCpOH-LFacinB(2-11)-NH2] (X1-FKCRRWQWRM-NH2)	>100 µM	> 100 µM	moderately or poorly active	>250 µM	>250 µM	190 µM (≈ 361 µg/mL)	250 µM (≈ 475 µg/mL)	190 µM (≈ 361 µg/mL)	250 µM (≈ 475 µg/mL)	>250 µM	>250 µM	190 µM (≈ 361 µg/mL)	250 µM (≈ 475 µg/mL)	> 100 µM	>100 µM	
CCCC[C@H](NC(=O)CCCC(=O)OC(Cn1cncn1)(Cn1cncn1)c1ccc(F)cc1F)C(=O)N[C@@H](Cc1ccccc1)C(=O)N[C@@H](CCCCN)C(=O)N[C@@H](CS)C(=O)N[C@@H](CCCNC(=N)N)C(=O)N[C@@H](CCCNC(=N)N)C(=O)N[C@@H](Cc1c[nH]c2ccccc12)C(=O)N[C@@H](CCC(N)=O)C(=O)N[C@@H](Cc1c[nH]c2ccccc12)C(=O)N[C@@H](CCCNC(=N)N)C(=O)N[C@@H](CCCC)C(=O)N[C@@H](CCCCN)C(=O)N[C@@H](CCCCN)C(=O)N[C@@H](CC(C)C)C(=O)NCC(N)=O [FLCpOH-LFacinB[Nle^1,11]-NH2] (X1-[Nle]FKCRRWQWR[Nle]KKLG-NH2)	>100 µM	75.6 ± 1.73 µM	moderately or poorly active	>250 µM	>250 µM	45 µM (≈ 109 µg/mL)	62 µM (≈ 150 µg/mL)	45 µM (≈ 109 µg/mL)	62 µM (≈ 150 µg/mL)	125 µM (≈ 302 µg/mL)	250 µM (≈ 605 µg/mL)	45 µM (≈ 109 µg/mL)	90 µM (≈ 218 µg/mL)	> 100 µM	>100 µM	
CC[C@H](C)[C@H](NC(=O)[C@H](CCCCN)NC(=O)[C@H](CCCCN)NC(=O)[C@H](C)NC(=O)[C@H](CC(C)C)NC(=O)[C@H](C)NC(=O)[C@H](C)NC(=O)[C@H](CC(C)C)NC(=O)[C@H](C)NC(=O)[C@H](CCCCN)NC(=O)[C@H](CC(C)C)NC(=O)[C@H](CC(N)=O)NC(=O)[C@@H](NC(=O)[C@H](CCCCN)NC(=O)CNC(=O)[C@H](CC(C)C)NC(=O)[C@H](CC(C)C)NC(=O)[C@H](Cc1ccc(O)cc1)NC(=O)CNC(=O)[C@H](C)NC(=O)CCCC(=O)OC(Cn1cncn1)(Cn1cncn1)c1ccc(F)cc1F)[C@@H](C)CC)C(=O)N[C@@H](CC(C)C)C(N)=O [FLCpOH-TP10-NH2]	34.30 ± 1.00 µM			62 µM (≈ 160 µg/mL)	125 µM (≈ 323 µg/mL)	45 µM (≈ 116 µg/mL)	62 µM (≈ 160 µg/mL)	45 µM (≈ 116 µg/mL)	62 µM (≈ 160 µg/mL)	45 µM (≈ 116 µg/mL)	62 µM (≈ 160 µg/mL)	45 µM (≈ 116 µg/mL)	62 µM (≈ 160 µg/mL)		28.81 ± 0.87 µM	MFC ([6]; C. albicans 247, aliquots plated on YPD agar, 24 h, lowest concentration with no colony growth): 250 µM (≈ 646 µg/mL); MFC ([7]; C. albicans Gu4, aliquots plated on YPD agar, 24 h, lowest concentration with no colony growth): 62 µM (≈ 160 µg/mL); MFC ([8]; C. albicans 604, aliquots plated on YPD agar, 24 h, lowest concentration with no colony growth): 250 µM (≈ 646 µg/mL)
O=C(O)CCCC(=O)OC(Cn1cncn1)(Cn1cncn1)c1ccc(F)cc1F [FLCpOH]			did not exert any antifungal activity	>250 µM	>250 µM	>250 µM	>250 µM	>250 µM	>250 µM	>250 µM	>250 µM	>250 µM	>250 µM			IC50 [1]: > 100 µM; In vitro cytotoxicity IC90 ± SEM [1]: >100 µM; IC50 [10]: > 100 µM; In vitro cytotoxicity IC90 ± SEM [10]: >100 µM
